According to patent US7541367B2, “3-benzoimidazolyl-pyrazolopyridines useful in treating kinase disorders” (Janssen Pharmaceutica, N.V., priority 2005, dated 2009):

Legend:
CDK1 = biological target: T1, CDK1 (Homo sapiens, UniProt P06493); test: CDK-1 kinase screening assay (33P-ATP FlashPlate); assay type: biochemical; conditions: human CDK1 with cyclin B; 10 μM ATP; 1 hr at 30° C
T1 construct: purchased New England Biolabs, Beverly, Mass; 6020; host or cells: insect cells

VEGF-R2 = biological target: T2, VEGF-R2 (Rattus norvegicus, UniProt O08775); test: VEGF-R2 kinase screening assay (33P-ATP FlashPlate); assay type: biochemical; conditions: rat VEGF-R2 kinase domain; 10 μM ATP; 1 hr at 30° C;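 also: Read-out is ³³P incorporation from ³³P-γ-ATP into biotinylated peptide substrate captured on streptavidin FlashPlate, counted by scintillation, 1% DMSO final, inhibition scaled between per-plate maximum and minimum signals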
T2 construct: polyhistidine (N)
T2 sequence (O08775 786-1343): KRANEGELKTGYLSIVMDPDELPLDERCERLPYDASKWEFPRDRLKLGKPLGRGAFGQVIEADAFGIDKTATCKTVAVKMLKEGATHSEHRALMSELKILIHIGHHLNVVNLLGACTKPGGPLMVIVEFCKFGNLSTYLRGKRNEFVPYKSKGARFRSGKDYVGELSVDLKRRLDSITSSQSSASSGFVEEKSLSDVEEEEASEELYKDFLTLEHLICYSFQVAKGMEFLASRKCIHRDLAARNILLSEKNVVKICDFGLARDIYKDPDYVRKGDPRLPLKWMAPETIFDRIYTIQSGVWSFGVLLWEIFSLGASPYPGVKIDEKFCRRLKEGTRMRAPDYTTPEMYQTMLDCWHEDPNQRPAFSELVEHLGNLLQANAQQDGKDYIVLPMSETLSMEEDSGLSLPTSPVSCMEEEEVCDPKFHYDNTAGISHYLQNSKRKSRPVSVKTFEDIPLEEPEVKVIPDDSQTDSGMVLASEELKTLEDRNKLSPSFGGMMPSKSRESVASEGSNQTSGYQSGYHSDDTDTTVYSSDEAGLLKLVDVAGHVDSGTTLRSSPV

HER2 = biological target: T3, HER2 (Homo sapiens, UniProt P04626); test: HER2 kinase screening assay (33P-ATP FlashPlate); assay type: biochemical; conditions: GST-HIS6 HER-2 aa 679 to 1255; 10 μM ATP; 1 hr at 30° C;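 also: Biotin-poly(GT) 4:1 peptide captured on streptavidin FlashPlate, 33P transfer from γ-ATP read by scintillation counting, lower incorporation means inhibition, 1% DMSO final, 100 µL reaction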
T3 construct: GST (Glutathione-S-Transferase) (N); HIS6 (N); thrombin cleavage site (N); purchased Proqinase, Freiburg, Germany
T3 sequence (P04626 679-1255): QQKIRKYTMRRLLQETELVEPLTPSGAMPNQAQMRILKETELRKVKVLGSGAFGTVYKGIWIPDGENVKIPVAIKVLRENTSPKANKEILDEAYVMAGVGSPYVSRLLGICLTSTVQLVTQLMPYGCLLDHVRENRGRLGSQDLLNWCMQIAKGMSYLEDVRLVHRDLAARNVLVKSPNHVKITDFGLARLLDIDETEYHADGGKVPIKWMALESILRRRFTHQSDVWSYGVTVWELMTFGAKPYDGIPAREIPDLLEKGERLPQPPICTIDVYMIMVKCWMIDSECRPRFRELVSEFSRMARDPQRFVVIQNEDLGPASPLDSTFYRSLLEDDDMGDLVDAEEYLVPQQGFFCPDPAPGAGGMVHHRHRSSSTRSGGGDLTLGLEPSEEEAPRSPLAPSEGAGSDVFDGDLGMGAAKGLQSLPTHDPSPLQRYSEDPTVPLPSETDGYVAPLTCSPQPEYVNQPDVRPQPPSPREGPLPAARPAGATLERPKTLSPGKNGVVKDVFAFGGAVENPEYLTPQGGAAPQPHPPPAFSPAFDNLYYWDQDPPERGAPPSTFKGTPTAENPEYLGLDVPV

Aurora-A = biological target: T4, Aurora-A (Mus musculus, UniProt P97477); test: Aurora-A kinase screening assay (33P-ATP FlashPlate); assay type: biochemical; conditions: 10 μM ATP, 1 hr at 30° C;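 also: His-tagged mouse Aurora-A phosphorylating a biotinylated peptide captured on streptavidin plates, read as 33P uptake by scintillation counting, 1% DMSO, inhibition scaled between per-plate maximum and minimum signals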
T4 construct: polyhistidine (N)
T4 sequence (P97477 1-395): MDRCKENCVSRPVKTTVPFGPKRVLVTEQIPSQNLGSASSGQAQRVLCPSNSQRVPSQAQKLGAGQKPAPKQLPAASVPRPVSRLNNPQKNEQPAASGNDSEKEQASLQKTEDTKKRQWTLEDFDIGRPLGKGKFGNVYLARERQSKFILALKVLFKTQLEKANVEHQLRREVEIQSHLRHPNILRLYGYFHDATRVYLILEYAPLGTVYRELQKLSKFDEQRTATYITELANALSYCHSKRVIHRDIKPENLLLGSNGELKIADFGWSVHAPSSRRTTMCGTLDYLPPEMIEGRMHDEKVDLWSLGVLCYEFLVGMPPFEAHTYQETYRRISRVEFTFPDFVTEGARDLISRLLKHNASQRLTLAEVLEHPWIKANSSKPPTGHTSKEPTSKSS

RET = biological target: T5, RET (Homo sapiens, UniProt P07949); test: RET kinase screening assay (33P-ATP FlashPlate); assay type: biochemical; conditions: human RET kinase domain; 10 μM ATP; 1 hr at 30° C;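 also: biotinylated peptide substrate captured on streptavidin FlashPlate, 33P phosphate transfer read by scintillation counting, 1% DMSO, lower incorporation means inhibition, percent relative to per-plate maximum and minimum signals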
T5 construct: polyhistidine (N)
T5 sequence (P07949 658-1114 limits assumed): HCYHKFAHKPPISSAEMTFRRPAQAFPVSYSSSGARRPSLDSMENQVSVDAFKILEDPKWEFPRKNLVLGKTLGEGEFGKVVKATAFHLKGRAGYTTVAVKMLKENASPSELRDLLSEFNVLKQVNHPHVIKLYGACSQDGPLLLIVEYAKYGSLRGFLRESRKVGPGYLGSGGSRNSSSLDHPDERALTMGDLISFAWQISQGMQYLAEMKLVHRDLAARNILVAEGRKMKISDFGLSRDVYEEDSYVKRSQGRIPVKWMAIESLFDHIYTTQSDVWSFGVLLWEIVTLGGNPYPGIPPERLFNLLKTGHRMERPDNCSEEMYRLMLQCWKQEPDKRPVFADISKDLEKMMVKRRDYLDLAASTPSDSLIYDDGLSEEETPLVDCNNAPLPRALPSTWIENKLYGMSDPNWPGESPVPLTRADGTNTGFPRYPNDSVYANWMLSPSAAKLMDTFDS

c-Src kinase = biological target: T6, c-Src kinase (Homo sapiens, UniProt P12931); test: c-Src Kinase Assay; assay type: biochemical; conditions: 5 μM ATP
T6 construct: purchased Upstate Biotechnology, Lake Placid, N.Y
T6 sequence (P12931 whole entry): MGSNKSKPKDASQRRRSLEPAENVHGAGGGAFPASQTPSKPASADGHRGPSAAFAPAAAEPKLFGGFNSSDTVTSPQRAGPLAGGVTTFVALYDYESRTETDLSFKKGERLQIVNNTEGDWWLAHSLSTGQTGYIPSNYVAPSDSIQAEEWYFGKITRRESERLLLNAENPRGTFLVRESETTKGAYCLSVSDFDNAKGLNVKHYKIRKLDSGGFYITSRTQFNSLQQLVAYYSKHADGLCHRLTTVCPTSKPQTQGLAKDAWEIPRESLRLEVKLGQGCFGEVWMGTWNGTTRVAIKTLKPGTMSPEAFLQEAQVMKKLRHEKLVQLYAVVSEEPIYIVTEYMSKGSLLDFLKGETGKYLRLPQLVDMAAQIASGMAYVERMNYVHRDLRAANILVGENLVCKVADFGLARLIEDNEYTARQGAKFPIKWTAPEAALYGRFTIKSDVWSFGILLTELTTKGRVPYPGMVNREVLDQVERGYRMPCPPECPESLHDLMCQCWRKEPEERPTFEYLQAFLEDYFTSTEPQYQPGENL
Description: A mixture of a 10× kinase buffer (80 mM MOPS at pH 7.0, 2 mM EDTA and 100 mM Magnesium Chloride), ATP (5 μM final from a 10 mM stock), a Cdc2 peptide […] (100 μM final from a 2.5 mM stock), γ-^33P ATP (10 μCi/μL stock) and water (for a total of 20 μL/well) was added to each well of a Streptavidin Flashplate.
Test compound in 100% DMSO (0.5 μL) was added to the appropriate wells. Diluted c-Src kinase (human) (Accession Number SWISS-PROT P12931) (Upstate Biotechnology, Lake Placid, N.Y.) (diluted in a buffer consisting of 20 mM MOPS at pH 7.0, 1 mM EDTA, β-mercaptoethanol (0.1%), Brij-35 (0.01%), glycerol (5%), and 1 mg/mL bovine serum albumin) (2.5 μL) was added to the wells to initiate the reactions. The reaction plates were incubated at 30° C. for 40 min. The reaction was terminated by the addition of a 3% phosphoric acid solution (5 μL). The reaction product (10 μL) was spotted onto a P30 filtermat and washed for 5 minutes in phosphoric acid (75 mM). The wash sequence was repeated two more times, followed with one final wash in methanol. The plates were then dried, sealed and read on the TopCount scintillation counter after adding 30 μL scintillation fluid.
(§1) A maximum and minimum signal for the assay was determined on each plate. The percent inhibition of a test compound was calculated according to the formula: […]
For a series of test concentrations, the IC50 was derived by graphing percent inhibition against the log of the concentrations tested for a given compound with results shown in Table 2
(§2) For compounds with multiple values, each value represents a separate assay result.

Lyn kinase = biological target: T7, Lyn kinase (Homo sapiens, UniProt P07948); test: Lyn Kinase Assay; assay type: biochemical; conditions: 5 μM ATP
T7 construct: purchased Upstate Biotechnology, Lake Placid, N.Y
T7 sequence (P07948 whole entry): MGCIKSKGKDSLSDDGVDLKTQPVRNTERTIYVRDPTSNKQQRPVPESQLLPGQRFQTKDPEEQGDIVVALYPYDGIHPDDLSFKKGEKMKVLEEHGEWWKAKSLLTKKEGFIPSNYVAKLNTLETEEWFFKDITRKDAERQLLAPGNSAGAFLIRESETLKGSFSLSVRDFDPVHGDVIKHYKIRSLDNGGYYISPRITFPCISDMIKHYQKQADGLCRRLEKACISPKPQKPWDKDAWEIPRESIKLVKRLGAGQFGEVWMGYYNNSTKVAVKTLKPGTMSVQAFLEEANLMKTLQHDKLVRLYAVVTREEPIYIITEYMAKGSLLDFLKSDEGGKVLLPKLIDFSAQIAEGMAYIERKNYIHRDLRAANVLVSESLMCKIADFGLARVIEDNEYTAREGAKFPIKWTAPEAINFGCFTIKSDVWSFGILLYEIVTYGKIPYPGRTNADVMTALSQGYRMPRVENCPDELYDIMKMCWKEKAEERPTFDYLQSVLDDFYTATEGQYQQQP
Description: Test compound in 100% DMSO (0.5 μL) was added to the appropriate wells. Diluted Lyn kinase (human) (Accession Number EMBL M16038) (Upstate Biotechnology, Lake Placid, N.Y.) (diluted in a buffer consisting of 50 mM Tris at pH 7.5, 0.1 mM EGTA, Sodium Vanadate (0.1 mM), β-mercaptoethanol (0.1%) and 1 mg/mL bovine serum albumin) (2.5 μL) was added to the wells to initiate the reactions.
The reaction plates were incubated at 30° C. for 40 min. The reaction was terminated by the addition of a 3% phosphoric acid solution (5 μL). The reaction product (10 μL) was spotted onto a P30 filtermat and washed for 5 minutes in phosphoric acid (75 mM). The wash sequence was repeated two more times, followed with one final wash in methanol. The plates were then dried, sealed and read on the TopCount scintillation counter after adding 30 μL scintillation fluid.
as §1
For a series of test concentrations, the IC50 was derived by graphing percent inhibition against the log of the concentrations tested for a given compound with results shown in Table 3
as §2

[1] = system: HeLa cervical adenocarcinoma; test: Cell Proliferation Inhibition Assay (14C-thymidine incorporation), HeLa; assay type: cell-based; conditions: Homo sapiens, HeLa, HeLa cells;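 also: test compound in DMSO added to cells seeded in scintillating 96-well plates, DMSO-only wells as control, uptake of methyl 14C-thymidine into new DNA counted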
A375 malignant melanoma = test: Cell Proliferation Inhibition Assay (14C-thymidine incorporation), A375; assay type: cell-based; conditions: Homo sapiens, A-375, A375 cells;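 also: proliferation measured by radiolabelled thymidine uptake into new DNA, counted in scintillating 96-well plates, compound-treated wells compared with DMSO-only control wells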
HCT-116 colon carcinoma = test: Cell Proliferation Inhibition Assay (14C-thymidine incorporation), HCT-116; assay type: cell-based; conditions: Homo sapiens, HCT-116, HCT-116 cells;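 also: proliferation measured as methyl 14C-thymidine uptake into new DNA, counted in 96-well scintillating microplates, compared with DMSO-only control wells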

T1 sequence (P06493 whole entry): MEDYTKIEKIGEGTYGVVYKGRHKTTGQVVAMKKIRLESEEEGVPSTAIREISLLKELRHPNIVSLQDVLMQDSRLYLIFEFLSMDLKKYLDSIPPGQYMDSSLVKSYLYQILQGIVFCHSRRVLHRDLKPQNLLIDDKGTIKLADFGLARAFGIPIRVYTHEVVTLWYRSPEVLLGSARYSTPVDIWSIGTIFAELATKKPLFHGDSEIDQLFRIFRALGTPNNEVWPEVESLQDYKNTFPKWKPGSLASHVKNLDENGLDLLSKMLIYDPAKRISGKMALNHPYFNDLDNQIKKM
T1 sequence (P14635 whole entry partner): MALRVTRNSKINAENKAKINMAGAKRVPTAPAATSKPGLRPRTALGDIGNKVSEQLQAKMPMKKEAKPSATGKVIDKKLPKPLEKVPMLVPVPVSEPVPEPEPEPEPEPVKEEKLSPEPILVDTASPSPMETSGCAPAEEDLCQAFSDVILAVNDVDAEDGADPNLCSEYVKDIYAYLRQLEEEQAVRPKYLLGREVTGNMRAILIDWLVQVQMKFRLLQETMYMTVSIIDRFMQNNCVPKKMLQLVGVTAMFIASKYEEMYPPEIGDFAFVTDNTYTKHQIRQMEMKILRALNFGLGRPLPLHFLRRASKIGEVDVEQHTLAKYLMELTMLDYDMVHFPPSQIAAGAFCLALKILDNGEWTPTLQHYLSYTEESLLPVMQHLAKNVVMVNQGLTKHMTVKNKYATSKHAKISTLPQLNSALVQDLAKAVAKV

Compound | IC50 (CDK1) | IC50 (VEGF-R2) | IC50 (HER2) | IC50 (Aurora-A) | IC50 (RET) | IC50 (c-Src kinase) | IC50 (Lyn kinase) | IC50 [1] | IC50 (A375 malignant melanoma) | IC50 (HCT-116 colon carcinoma)
COCc1cccc2[nH]c(-c3nn(C)c4ncc(-c5cncc6ccccc56)cc34)nc12 [Cpd 33, 4-[3-(4-methoxymethyl-1H-benzoimidazol-2-yl)-1-methyl-1H-pyrazolo[3,4-b]pyridin-5-yl]-isoquinoline] | 0.123 µM | > 100 µM | > 100 µM | ~100 µM | > 100 µM | 1.17 µM | 1.14 µM | 1.18 µM | 0.256 µM | 0.203 µM
COCc1cccc2[nH]c(-c3n[nH]c4ncc(-c5cncc(CNC(C)C)c5)cc34)nc12 [Cpd 43, isopropyl-{5-[3-(4-methoxymethyl-1H-benzoimidazol-2-yl)-1H-pyrazolo[3,4-b]pyridin-5-yl]-pyridin-3-ylmethyl}-amine] | 0.0291 µM | 0.683 µM | > 10 µM | 6.58 µM | 2.23 µM | 0.836 µM | 0.132 µM | 0.18 µM | 0.166 µM | 0.131 µM
COCc1cccc2[nH]c(-c3n[nH]c4ncc(-c5cncc(CO)c5)cc34)nc12 [Cpd 44, {5-[3-(4-methoxymethyl-1H-benzoimidazol-2-yl)-1H-pyrazolo[3,4-b]pyridin-5-yl]-pyridin-3-yl}-methanol] | 0.0889 µM | 0.341 µM | > 100 µM | > 1 µM | ~10 µM | 0.288 µM | 0.379 µM | 0.771 µM | 0.357 µM | 0.128 µM
NC1CCC(NC(=O)c2cccc3[nH]c(-c4n[nH]c5ncc(-c6cncc7ccccc67)cc45)nc23)CC1 (centres unmarked) [Cpd 45, 2-(5-isoquinolin-4-yl-1H-pyrazolo[3,4-b]pyridin-3-yl)-1H-benzoimidazole-4-carboxylic acid (4-amino-cyclohexyl)-amide] | 0.0349 µM | > 0.1 µM | 31 µM | 0.04 µM | > 100 µM | 0.000653 µM | 0.00133 µM | 7.53 µM | 28.5 µM | > 10 µM
Cc1ccccc1NC(=O)c1cccc2[nH]c(-c3n[nH]c4ncc(-c5cncc6ccccc56)cc34)nc12 [Cpd 46, 2-(5-isoquinolin-4-yl-1H-pyrazolo[3,4-b]pyridin-3-yl)-1H-benzoimidazole-4-carboxylic acid o-tolylamide] | 0.0806 µM | 0.702 µM | ~100 µM | 0.23 µM | ~10 µM | 0.0014 µM | 0.00631 µM | 0.159 µM | 0.195 µM | 0.225 µM
